In PubChem BioAssay AID2060338 (Molecular Pharmacology Branch, DTP, NCI, 2025):
Several values for one entry are separate records, joined by “and”; a condition that tells them apart may be missing. Identical values can stand only once.

Test system: 556581-035-R-J1-PDC spheroids with HUVEC/MSC, viability
Experiment: Anticancer human tumor 556581-035-R-J1-PDC patient-derived ovarian carcinoma cell line growth inhibition [IpAb]
Conditions: for viability, T/C: stronger effect = lower value
Method in brief: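 Multi-cell spheroids of 60% tumour cells, 25% HUVEC and 15% MSC in ultra-low-attachment U-bottom wells, treated with agents combined with ipatasertib or abemaciclib. Half-log ranges top out near clinical Cmax, or 10 microM when Cmax is unknown.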

[1] = curve of first compound, second compound 0.1 µM
[2] = curve of first compound, second compound 0.316 µM
[3] = curve of first compound, second compound 1 µM
[4] = second compound 0.1 µM, first compound 0.0316 µM
[5] = second compound 0.1 µM, first compound 0.1 µM
[6] = second compound 0.1 µM, first compound 0.316 µM
[7] = second compound 0.1 µM, first compound 1 µM
[8] = second compound 0.1 µM, first compound 3.16 µM
[9] = second compound 0.1 µM, first compound 10 µM
[10] = second compound 0.316 µM, first compound 0.0316 µM
[11] = second compound 0.316 µM, first compound 0.1 µM
[12] = second compound 0.316 µM, first compound 0.316 µM
[13] = second compound 0.316 µM, first compound 1 µM
[14] = second compound 0.316 µM, first compound 3.16 µM
[15] = second compound 0.316 µM, first compound 10 µM
[16] = second compound 1 µM, first compound 0.0316 µM
[17] = second compound 1 µM, first compound 0.1 µM
[18] = second compound 1 µM, first compound 0.316 µM
[19] = second compound 1 µM, first compound 1 µM
[20] = second compound 1 µM, first compound 3.16 µM
[21] = second compound 1 µM, first compound 10 µM
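Note: spheroids exposed to compounds for 7 days before readout.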

SMILES | IC50 [1] | IC50 [2] | IC50 [3] | viability, T/C [4] | viability, T/C [5] | viability, T/C [6] | viability, T/C [7] | viability, T/C [8] | viability, T/C [9] | viability, T/C [10] | viability, T/C [11] | viability, T/C [12] | viability, T/C [13] | viability, T/C [14] | viability, T/C [15] | viability, T/C [16] | viability, T/C [17] | viability, T/C [18] | viability, T/C [19] | viability, T/C [20] | other results
CC1(C)CCC(CN2CCN(c3ccc(C(=O)NS(=O)(=O)c4ccc(NCC5CCOCC5)c([N+](=O)[O-])c4)c(Oc4cnc5[nH]ccc5c4)c3)CC2)=C(c2ccc(Cl)cc2)C1 | – | – | – | – | – | – | – | – | – | – | – | – | – | – | – | – | – | – | – | – | viability, T/C (compound 0.0316 µM): 105% and 99.1%; viability, T/C (compound 0.1 µM): 103% and 102%; viability, T/C (compound 0.316 µM): 95.2% and 99%; viability, T/C (compound 1 µM): 94% and 108%; viability, T/C (compound 3.16 µM): 105% and 97.4%; viability, T/C (compound 10 µM): 27.4% and 15.8%; IC50 (curve of compound): 6.99 µM and 6.18 µM
C=CC(=O)N1CCN(c2nc(=O)n(-c3c(C)ccnc3C(C)C)c3nc(-c4c(O)cccc4F)c(F)cc23)C(C)C1 (configuration not stated) + CCN1CCN(Cc2ccc(Nc3ncc(F)c(-c4cc(F)c5nc(C)n(C(C)C)c5c4)n3)nc2)CC1 | 7.02 µM | 4.11 µM | 0.143 µM | 94.1% | 109% | 103% | 124% | 94.4% | 30.1% | 85.3% | 93.3% | 108% | 106% | 56.4% | 28.1% | 50.1% | 50.2% | 51.6% | 42% | 34.2% | IC50 (curve of first compound, second compound 0.01 µM): 7.37 µM; IC50 (curve of first compound, second compound 0.0316 µM): 7.29 µM; viability, T/C (second compound 0.01 µM, first compound 0.0316 µM): 102%; viability, T/C (second compound 0.01 µM, first compound 0.1 µM): 108%; viability, T/C (second compound 0.01 µM, first compound 0.316 µM): 105%; viability, T/C (second compound 0.01 µM, first compound 1 µM): 119%; viability, T/C (second compound 0.01 µM, first compound 3.16 µM): 91%; viability, T/C (second compound 0.01 µM, first compound 10 µM): 35.2%; viability, T/C (second compound 0.0316 µM, first compound 0.0316 µM): 91.2%; viability, T/C (second compound 0.0316 µM, first compound 0.1 µM): 107%; viability, T/C (second compound 0.0316 µM, first compound 0.316 µM): 104%; viability, T/C (second compound 0.0316 µM, first compound 1 µM): 107%; viability, T/C (second compound 0.0316 µM, first compound 3.16 µM): 108%; viability, T/C (second compound 0.0316 µM, first compound 10 µM): 29.7%; viability, T/C [21]: 17.6%
Cc1nc(NC(=O)N2CCCC2C(N)=O)sc1-c1ccnc(C(C)(C)C(F)(F)F)c1 (configuration not stated) + CC(C)NCC(C(=O)N1CCN(c2ncnc3c2C(C)CC3O)CC1)c1ccc(Cl)cc1 | 0.504 µM | 0.206 µM | 0.0484 µM | 81.8% | 68.6% | 56.8% | 38.8% | 31% | 11.3% | 62% | 57.6% | 40.3% | 39.2% | 33% | 11.3% | 48.5% | 53.8% | 39.8% | 36.2% | 27.4% | IC50 (curve of first compound, second compound 3.16 µM): < 0.0316 µM; IC50 (curve of first compound, second compound 10 µM): < 0.0316 µM; viability, T/C [21]: 16.2%; viability, T/C (second compound 3.16 µM, first compound 0.0316 µM): 41.8%; viability, T/C (second compound 3.16 µM, first compound 0.1 µM): 43.2%; viability, T/C (second compound 3.16 µM, first compound 0.316 µM): 43.5%; viability, T/C (second compound 3.16 µM, first compound 1 µM): 35.6%; viability, T/C (second compound 3.16 µM, first compound 3.16 µM): 24.6%; viability, T/C (second compound 3.16 µM, first compound 10 µM): 10.7%; viability, T/C (second compound 10 µM, first compound 0.0316 µM): 38.6%; viability, T/C (second compound 10 µM, first compound 0.1 µM): 42.4%; viability, T/C (second compound 10 µM, first compound 0.316 µM): 35.7%; viability, T/C (second compound 10 µM, first compound 1 µM): 27.2%; viability, T/C (second compound 10 µM, first compound 3.16 µM): 22.9%; viability, T/C (second compound 10 µM, first compound 10 µM): 4.11%
